Details: alkaline pH versus neutral and acidic pH

O=C([O-])CN(CCN(CC(=O)[O-])CC(=O)[O-])CC(=O)[O-].[Ag+].[Ag+].[Zn+2] [Ag2Zn(EDTA)]
stability of the active ingredient-containing solution (precipitation): can be stabilized by an alkaline pH

From US20260041811A1, “HYDROGEL FOR THE REDUCTION OF BIOFILMS” (PAUL HARTMANN AG, priority 2022, published 2026)
